Source: patent publication US6602499B1, “Combination viral-based and gene-based therapy of tumors” (priority 1998, dated 2003)

Legend:
Vero cells = type: cell-based; details: CPA at concentrations up to 200 uM
[1] = test system: rRp450- and hrR3-infected 9L cells; assay: Viral protein synthesis (35S-methionine pulse, autoradiography) in infected 9L cells; type: cell-based, rat; details: 9L cells grown with 250 uM CPA or 100 ng/ml ganciclovir for 30 hours, then infected with rRp450 or hrR3 at MOI=3
Method: FIG. 4 is an autoradiograph depicting the effect of CPA on rRp450 protein synthesis in infected 9L tumor cells. 9L tumor cells were grown in the presence of CPA (lanes 3 and 6), 100 ng/ml ganciclovir (lanes 2 and 5), or vehicle (lanes 1 and 4). Cells from each group were then infected with rRp450 (lanes 4-6) or hrR3 (lanes 1-3). After pulsing with ^35S-methionine, cell lysates were separated by electrophoresis. The designations, 6,5,8, gB, and pgB indicate the viral ICP6-lacZ fusion, ICP5, ICP8, and glycoprotein B, respectively. The size of molecular weight markers is indicated on the left side of the blot.
Measurement of Viral Protein Synthesis: 9L tumor cells were grown in the presence of 250 uM CPA, 100 ng/ml ganciclovir, or vehicle for 30 hours. Cells from each group were then infected with rRp450 or hrR3 at an MOI=3. Control plates were infected with a mock viral preparation. Eighteen hours later, medium was removed and fresh medium containing 20 uCi of ^35S-methionine was added. Cells were then scraped and harvested two hours later. Cell pellets were resuspended in sodium phosphate, pH=7.3. in 0.9% sodium chloride in the presence of protease inhibitors and then sheared by passage through a 28 and a ½ gauge needle. Protein concentrations were calculated by using a commercially available kit (BioRad). […]

human U87 tumors = assay: Subcutaneous human U87 glioma tumors in athymic mice, intratumoral injection; type: in vivo; details: rRp450 2.5×10^8 pfus plus vehicle, or 1 mg CPA alone
From the text: FIG. 6B is a graph depicting the in vivo augmentation of rRp450's oncolytic effect by CPA on U87 tumors. Human U87 tumors were inoculated with CPA (closed circles), rRp450 plus vehicle (open circles), or rRp450 plus CPA (dark squares). The black vertical arrows indicate the times of injection (days 1, 2, 4, and 6). Values represent the average tumor volume from 5 mice per group. Error bars represent the standard error of the mean. For this experiment, differences were statistically significant at the 22, 26 and 29 day time point (P<0.05, one way analysis of variance).
In a similar experiment, visible subcutaneous nodules (the range of volumes was 10-135 mm^3 and the average volume was 74 mm^3) were established by the injection of 10^6 human U87 glioma cells into the subcutaneous flank of athymic mice (NCY/sed, nu/nu; MGH breeding colony). Thirty days later the tumors were treated with intratumoral injections, using a Hamilton syringe, of 1 mg CPA in 125 ul of medium, rRp450 (2.5×10^8 pfus) plus vehicle in 125 ul of medium, or rRp450 (2.5×10^8 pfus) plus 1 mg CPA in 125 ul of medium. Tumor inoculations were repeated on day 2, day 4 and day 6. Five mice were used per treatment group. […]

9L cells = assay: Viral yields from infected 9L cells treated with cyclophosphamide, plaque assay on Vero cells; type: cell-based, rat; details: 9L cells infected with rRp450 in presence or absence of cyclophosphamide, three days
Method: Three day later, cells and supernatants were harvested and virus was harvested by freeze-thawing three times. Plaque-assays on Vero cells were performed to measure viral yields. Assay was performed in triplicate plates.
Cell culture studies: Cells were usually plated the day before viral infection. The following day, 3 random dishes were trypsinized and cell numbers were enumerated using a Coulter counter. Based on the mean cell number, the viral mutant was added to achieve the desired multiplicity of infection (MOI). Experiments were performed in triplicate dishes.
CPA: CPA was added at the start of the incubation period at a concentration of 250 Um.

SMILES	Inhibition of plaque production (Vero cells)	Effect of drug on viral protein synthesis [1]	Growth of U87 tumors, agent alone (human U87 tumors)	Effect of CPA on replication of rRp450 (9L cells)
Nc1nc(O)c2ncn(COC(CO)CO)c2n1 [ganciclovir]	did	inhibited the synthesis of viral proteins		
O=P1(N(CCCl)CCCl)NCCCO1 (stereo not drawn) [CPA, cyclophosphamide]	did not inhibit plaque production	did not appear to significantly inhibit viral protein synthesis	relatively rapid	did not significantly inhibit replication of rRp450
